Here are results for eight compounds from ChEMBL document CHEMBL3991601, “The target landscape of clinical kinase drugs” (Science, 2017).

The source made the active and inactive calls. Rule as the data show it, for most assays here: actives have a measured Kd and inactives only a lower limit.

For test [1], the target named is T1, Ras-related protein Rab-10 (Homo sapiens, UniProt P61026).
T1 sequence (P61026 whole entry): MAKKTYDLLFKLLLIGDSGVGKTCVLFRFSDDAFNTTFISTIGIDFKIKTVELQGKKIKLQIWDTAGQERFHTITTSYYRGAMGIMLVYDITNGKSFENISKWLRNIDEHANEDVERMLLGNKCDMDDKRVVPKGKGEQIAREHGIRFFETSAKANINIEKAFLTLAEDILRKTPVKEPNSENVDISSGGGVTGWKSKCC

Test [2] addresses Mitogen-activated protein kinase 14 (Homo sapiens, UniProt Q16539).
Test [3] deals with T2, Dual specificity mitogen-activated protein kinase kinase 5 (Homo sapiens, UniProt Q13163).
T2 sequence (Q13163 whole entry): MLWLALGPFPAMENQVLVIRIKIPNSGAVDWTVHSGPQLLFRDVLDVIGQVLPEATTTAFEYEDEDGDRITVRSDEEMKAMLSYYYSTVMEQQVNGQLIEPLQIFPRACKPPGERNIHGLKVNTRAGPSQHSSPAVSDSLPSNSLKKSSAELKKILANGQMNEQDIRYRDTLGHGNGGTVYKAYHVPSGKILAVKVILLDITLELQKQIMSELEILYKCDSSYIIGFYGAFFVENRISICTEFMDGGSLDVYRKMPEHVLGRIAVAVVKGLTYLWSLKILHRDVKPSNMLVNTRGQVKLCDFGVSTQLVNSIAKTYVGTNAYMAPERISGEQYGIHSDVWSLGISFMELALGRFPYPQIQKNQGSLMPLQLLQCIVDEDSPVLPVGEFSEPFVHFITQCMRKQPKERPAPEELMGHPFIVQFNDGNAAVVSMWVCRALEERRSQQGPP

Test [4] concerns the target Bone morphogenetic protein receptor type-1B (Homo sapiens, UniProt O00238).
For test [5], the target named is cAMP-dependent protein kinase catalytic subunit gamma (Homo sapiens, UniProt P22612).
The target of test [6] is Cyclin-dependent kinase 2 (Homo sapiens, UniProt P24941).
The target of another test is Ephrin type-A receptor 5 (Homo sapiens, UniProt P54756).
Test [7] deals with Serine/threonine-protein kinase SIK2 (Homo sapiens, UniProt Q9H0K1).
Chain of Serine/threonine-protein kinase SIK2 (Q9H0K1 whole entry): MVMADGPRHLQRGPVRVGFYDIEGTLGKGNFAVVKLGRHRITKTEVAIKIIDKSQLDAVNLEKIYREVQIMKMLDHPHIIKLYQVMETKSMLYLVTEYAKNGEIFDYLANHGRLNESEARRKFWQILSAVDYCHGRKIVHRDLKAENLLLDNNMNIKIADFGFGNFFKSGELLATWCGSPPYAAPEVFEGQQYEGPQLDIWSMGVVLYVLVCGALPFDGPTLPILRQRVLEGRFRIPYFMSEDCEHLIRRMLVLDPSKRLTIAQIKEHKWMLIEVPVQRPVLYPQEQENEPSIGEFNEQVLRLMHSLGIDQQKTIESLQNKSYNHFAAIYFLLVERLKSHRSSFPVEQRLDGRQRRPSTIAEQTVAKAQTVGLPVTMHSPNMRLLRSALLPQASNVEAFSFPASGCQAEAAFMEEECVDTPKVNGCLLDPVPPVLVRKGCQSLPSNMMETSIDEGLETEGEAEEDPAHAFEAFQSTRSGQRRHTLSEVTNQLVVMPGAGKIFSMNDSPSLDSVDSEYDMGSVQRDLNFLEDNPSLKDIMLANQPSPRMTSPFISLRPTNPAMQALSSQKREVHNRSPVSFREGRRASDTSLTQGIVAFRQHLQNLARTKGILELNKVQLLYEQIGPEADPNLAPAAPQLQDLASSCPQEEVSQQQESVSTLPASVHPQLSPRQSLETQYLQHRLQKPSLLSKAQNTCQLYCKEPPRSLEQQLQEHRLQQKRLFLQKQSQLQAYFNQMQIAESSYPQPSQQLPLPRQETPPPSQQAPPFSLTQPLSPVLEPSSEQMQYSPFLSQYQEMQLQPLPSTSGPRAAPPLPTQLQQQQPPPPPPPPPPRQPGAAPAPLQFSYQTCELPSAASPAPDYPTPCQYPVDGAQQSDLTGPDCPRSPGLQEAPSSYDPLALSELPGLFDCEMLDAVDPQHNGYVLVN
The target of test [8] is Receptor-interacting serine/threonine-protein kinase 2 (Homo sapiens, UniProt O43353).
Chain of Receptor-interacting serine/threonine-protein kinase 2 (O43353 whole entry): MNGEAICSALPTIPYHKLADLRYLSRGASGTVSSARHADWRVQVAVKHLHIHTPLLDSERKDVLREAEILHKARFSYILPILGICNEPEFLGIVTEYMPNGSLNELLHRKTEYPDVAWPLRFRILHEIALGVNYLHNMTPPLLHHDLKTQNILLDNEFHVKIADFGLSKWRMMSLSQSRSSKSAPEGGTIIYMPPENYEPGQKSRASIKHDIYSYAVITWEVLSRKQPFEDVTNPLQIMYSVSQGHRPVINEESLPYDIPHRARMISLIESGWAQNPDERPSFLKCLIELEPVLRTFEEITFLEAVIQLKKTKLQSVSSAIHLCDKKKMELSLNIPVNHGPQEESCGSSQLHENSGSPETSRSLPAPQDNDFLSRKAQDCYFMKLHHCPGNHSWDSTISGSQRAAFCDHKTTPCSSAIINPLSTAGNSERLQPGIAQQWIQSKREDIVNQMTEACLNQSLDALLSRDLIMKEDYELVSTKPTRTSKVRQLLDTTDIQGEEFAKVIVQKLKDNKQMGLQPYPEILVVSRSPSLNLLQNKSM
Test [9] deals with Platelet-derived growth factor receptor beta (Homo sapiens, UniProt P09619).
In test [10] the target is Mitogen-activated protein kinase kinase kinase kinase 5 (Homo sapiens, UniProt Q9Y4K4).
Chain of Mitogen-activated protein kinase kinase kinase kinase 5 (Q9Y4K4 whole entry): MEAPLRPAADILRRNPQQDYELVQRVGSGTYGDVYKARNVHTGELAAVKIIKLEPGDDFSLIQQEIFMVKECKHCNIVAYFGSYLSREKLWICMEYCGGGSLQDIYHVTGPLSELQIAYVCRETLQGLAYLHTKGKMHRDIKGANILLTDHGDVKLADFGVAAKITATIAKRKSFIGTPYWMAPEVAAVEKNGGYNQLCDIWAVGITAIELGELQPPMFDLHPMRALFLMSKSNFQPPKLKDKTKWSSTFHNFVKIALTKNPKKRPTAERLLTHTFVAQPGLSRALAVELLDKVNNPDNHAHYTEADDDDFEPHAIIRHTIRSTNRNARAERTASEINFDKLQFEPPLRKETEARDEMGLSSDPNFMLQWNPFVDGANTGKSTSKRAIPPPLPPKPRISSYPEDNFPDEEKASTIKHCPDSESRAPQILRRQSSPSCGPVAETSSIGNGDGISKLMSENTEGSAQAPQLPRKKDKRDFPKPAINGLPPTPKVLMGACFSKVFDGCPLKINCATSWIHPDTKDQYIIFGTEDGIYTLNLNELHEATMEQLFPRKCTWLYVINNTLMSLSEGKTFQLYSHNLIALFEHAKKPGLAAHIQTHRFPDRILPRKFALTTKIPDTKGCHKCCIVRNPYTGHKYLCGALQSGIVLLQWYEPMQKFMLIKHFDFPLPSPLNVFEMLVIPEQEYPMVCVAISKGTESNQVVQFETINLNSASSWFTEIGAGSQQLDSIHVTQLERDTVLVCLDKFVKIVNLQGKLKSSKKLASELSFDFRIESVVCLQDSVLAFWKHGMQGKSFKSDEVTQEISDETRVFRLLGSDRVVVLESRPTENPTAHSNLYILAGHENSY
In test [11] the target is Dual specificity testis-specific protein kinase 1 (Homo sapiens, UniProt Q15569).
For the next test, the target named is Deoxycytidine kinase (Homo sapiens, UniProt P27707).
Chain of Deoxycytidine kinase (P27707 whole entry): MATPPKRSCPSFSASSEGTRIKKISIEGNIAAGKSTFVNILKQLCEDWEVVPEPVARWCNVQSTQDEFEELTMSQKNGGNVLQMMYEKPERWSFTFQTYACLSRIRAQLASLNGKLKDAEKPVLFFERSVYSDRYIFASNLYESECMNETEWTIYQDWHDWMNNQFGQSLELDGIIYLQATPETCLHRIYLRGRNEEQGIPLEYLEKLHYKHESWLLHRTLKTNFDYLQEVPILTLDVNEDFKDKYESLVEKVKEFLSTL
Test [12] deals with Tyrosine-protein kinase Lyn (Homo sapiens, UniProt P07948).
In test [13] the target is T3, Glycogen phosphorylase, liver form (Homo sapiens, UniProt P06737).
T3 sequence (P06737 whole entry): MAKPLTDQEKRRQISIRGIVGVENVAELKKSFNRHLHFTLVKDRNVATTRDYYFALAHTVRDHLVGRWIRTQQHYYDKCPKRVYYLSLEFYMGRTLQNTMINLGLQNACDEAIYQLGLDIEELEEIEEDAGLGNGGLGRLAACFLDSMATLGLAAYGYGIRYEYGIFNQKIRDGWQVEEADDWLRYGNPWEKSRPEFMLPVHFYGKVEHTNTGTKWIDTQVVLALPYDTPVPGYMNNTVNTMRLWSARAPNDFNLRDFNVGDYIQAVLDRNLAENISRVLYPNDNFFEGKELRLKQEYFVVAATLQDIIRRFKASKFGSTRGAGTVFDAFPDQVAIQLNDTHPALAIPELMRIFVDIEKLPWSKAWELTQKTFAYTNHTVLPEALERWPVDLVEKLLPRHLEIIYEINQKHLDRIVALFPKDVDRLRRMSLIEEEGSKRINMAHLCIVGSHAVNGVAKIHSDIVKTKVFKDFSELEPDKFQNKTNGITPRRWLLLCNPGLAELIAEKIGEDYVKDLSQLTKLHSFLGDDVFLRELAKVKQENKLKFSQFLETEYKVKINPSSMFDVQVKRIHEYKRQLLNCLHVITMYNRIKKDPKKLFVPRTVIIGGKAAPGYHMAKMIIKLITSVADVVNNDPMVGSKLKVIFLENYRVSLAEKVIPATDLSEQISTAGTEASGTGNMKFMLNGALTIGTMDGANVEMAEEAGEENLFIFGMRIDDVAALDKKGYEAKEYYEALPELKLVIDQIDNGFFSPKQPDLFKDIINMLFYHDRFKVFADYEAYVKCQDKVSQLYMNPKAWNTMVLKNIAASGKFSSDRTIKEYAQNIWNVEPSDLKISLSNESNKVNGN
The class given is subcellular, K-562, COLO 205, SK-N-BE(2) and MV-4-11, Cell lysate. The note with it: read-out: Kd apparent.

For test [14], the target named is DnaJ homolog subfamily A member 1 (Homo sapiens, UniProt P31689).
Chain of DnaJ homolog subfamily A member 1 (P31689 whole entry): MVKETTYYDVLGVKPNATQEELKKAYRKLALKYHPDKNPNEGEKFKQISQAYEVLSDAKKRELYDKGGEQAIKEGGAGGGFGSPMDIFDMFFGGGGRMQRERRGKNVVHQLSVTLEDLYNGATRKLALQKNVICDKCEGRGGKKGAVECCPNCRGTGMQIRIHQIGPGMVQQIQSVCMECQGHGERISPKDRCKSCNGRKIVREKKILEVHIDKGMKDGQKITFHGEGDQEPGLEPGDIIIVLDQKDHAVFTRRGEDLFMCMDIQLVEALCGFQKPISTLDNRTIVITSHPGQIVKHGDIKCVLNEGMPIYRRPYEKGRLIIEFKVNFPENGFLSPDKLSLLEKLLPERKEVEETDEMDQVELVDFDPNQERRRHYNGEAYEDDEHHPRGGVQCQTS
Test [15] has as its target Non-receptor tyrosine-protein kinase TYK2 (Homo sapiens, UniProt P29597).
Also: in the data inactive means no Kd found up to 30 µM.

Chain of Non-receptor tyrosine-protein kinase TYK2 (P29597 whole entry): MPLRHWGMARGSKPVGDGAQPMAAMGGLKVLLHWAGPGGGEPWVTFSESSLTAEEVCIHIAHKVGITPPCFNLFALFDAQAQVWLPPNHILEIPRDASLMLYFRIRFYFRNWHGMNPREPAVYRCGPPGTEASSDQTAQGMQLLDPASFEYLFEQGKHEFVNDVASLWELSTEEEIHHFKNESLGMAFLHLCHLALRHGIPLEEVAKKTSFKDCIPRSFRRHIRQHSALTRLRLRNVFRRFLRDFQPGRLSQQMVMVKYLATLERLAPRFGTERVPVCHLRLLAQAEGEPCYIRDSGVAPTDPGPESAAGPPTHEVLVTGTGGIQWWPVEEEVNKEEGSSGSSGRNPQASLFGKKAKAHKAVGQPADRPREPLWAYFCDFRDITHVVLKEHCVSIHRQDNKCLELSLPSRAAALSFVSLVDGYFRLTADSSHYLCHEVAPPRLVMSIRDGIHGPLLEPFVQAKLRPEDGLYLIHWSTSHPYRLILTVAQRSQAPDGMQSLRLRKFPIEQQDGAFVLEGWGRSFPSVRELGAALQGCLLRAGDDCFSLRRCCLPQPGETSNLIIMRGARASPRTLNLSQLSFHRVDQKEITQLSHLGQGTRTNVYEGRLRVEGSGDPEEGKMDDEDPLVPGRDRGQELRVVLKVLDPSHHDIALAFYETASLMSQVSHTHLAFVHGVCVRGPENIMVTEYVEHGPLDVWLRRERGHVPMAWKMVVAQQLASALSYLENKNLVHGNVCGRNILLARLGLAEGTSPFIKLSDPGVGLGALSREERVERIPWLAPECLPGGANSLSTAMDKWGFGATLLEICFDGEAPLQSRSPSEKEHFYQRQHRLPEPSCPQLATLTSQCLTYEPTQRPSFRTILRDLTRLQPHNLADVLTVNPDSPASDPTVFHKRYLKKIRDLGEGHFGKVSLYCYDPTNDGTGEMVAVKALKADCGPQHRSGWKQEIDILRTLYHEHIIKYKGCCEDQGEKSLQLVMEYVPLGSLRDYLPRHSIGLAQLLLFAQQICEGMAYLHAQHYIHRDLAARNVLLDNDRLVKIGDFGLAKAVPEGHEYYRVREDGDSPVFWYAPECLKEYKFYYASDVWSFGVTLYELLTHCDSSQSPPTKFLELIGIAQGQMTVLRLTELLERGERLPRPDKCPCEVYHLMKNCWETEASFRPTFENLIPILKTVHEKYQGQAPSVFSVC
Chain of Bone morphogenetic protein receptor type-1B (O00238 whole entry): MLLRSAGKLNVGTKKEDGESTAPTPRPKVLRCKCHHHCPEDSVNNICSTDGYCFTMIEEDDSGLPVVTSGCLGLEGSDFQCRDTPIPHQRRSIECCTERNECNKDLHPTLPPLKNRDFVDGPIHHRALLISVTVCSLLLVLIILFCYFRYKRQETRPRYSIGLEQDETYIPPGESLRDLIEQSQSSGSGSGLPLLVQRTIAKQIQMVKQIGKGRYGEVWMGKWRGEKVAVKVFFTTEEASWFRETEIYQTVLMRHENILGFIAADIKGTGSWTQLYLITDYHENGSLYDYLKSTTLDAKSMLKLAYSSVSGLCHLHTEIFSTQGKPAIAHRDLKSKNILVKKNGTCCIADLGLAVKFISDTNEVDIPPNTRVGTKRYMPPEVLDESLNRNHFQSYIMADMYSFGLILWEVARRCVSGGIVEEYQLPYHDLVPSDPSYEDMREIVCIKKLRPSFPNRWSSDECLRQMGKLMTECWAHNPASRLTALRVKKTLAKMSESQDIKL
Chain of Mitogen-activated protein kinase 14 (Q16539 whole entry): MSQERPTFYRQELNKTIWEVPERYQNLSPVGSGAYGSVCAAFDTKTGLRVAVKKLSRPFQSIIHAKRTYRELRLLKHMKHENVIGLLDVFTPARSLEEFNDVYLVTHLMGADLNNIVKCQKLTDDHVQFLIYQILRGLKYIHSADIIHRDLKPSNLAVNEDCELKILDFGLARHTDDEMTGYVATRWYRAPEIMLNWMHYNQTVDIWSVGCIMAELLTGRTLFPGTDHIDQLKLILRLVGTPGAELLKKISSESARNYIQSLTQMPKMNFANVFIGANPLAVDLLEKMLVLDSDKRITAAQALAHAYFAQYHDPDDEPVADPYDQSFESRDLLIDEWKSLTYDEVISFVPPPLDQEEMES

Take `C[C@H]1CNCCCN1S(=O)(=O)c1cccc2cncc(F)c12`: the Kd in [1], in test [2], in test [3], in [4], in [5] and in test [6] was > 30 µM (inactive) throughout. Besides, the Kd (at Ephrin type-A receptor 5; in test [7]; in test [8]; in [9]; in [10]; in test [11]) was > 30 µM (inactive) in each case. Besides, the Kd (on Deoxycytidine kinase; in test [12]; in test [13]; in [14]; in test [15]) was > 30 µM (inactive) in each case.
For `C=CC(=O)N1CCC[C@H](n2c(=O)n(-c3ccc(Oc4ccccc4)cc3)c3c(N)ncnc32)C1`, the Kd in [1], in test [2], in [3], in test [4], in test [5] and in test [6] was > 30 µM (inactive) throughout. Moreover, the Kd is > 30 µM (inactive) at Ephrin type-A receptor 5; > 30 µM (inactive) in test [7]; 0.007 µM in test [8]; > 30 µM (inactive) in [9]; > 30 µM (inactive) in test [10]; > 30 µM (inactive) in test [11]. Further, the Kd was > 30 µM (inactive) at Deoxycytidine kinase; 0.006 µM in test [12]; > 30 µM (inactive) in [13]; > 30 µM (inactive) in test [14]; > 30 µM (inactive) in test [15].
For the compound `COCc1c(-c2ccc(NC(=O)Nc3cc(C(F)(F)F)ccc3F)c(F)c2)c2c(N)ncnn2c1CN1CCOCC1`, the Kd in [1], in [2], in test [3], in test [4], in test [5] and in test [6] was > 30 µM (inactive) in each case. The Kd (on Ephrin type-A receptor 5; in test [7]; in [8]; in test [9]; in test [10]; in [11]) was > 30 µM (inactive) throughout. The Kd (at Deoxycytidine kinase; in test [12]; in test [13]; in test [14]; in [15]) was > 30 µM (inactive) throughout.
Consider `Cc1nc(NC(=O)N2CCC[C@H]2C(N)=O)sc1-c1ccnc(C(C)(C)C(F)(F)F)c1` [ALPELISIB], for which the Kd in test [1] is > 30 µM (inactive); in test [2] it was > 30 µM (inactive); in [3], > 30 µM (inactive); in test [4], > 30 µM (inactive); in [5], 1.99 µM (active); in [6], > 30 µM (inactive). Further, the Kd (at Ephrin type-A receptor 5; in test [7]; in test [8]; in [9]; in [10]; in test [11]) was > 30 µM (inactive) in each case. Besides, the Kd (at Deoxycytidine kinase; in test [12]; in test [13]; in [14]; in test [15]) was > 30 µM (inactive) each time.
On to `Cc1csc(-c2nnc(Nc3ccc(Oc4ncccc4-c4ccnc(N)n4)cc3)c3ccccc23)c1` [AMG-900], for which the Kd in test [1] is > 30 µM (inactive); in [2], 0.735 µM (active); in test [3], > 30 µM (inactive); in [4], > 30 µM (inactive); in test [5], > 30 µM (inactive); in test [6], > 30 µM (inactive). Also, the Kd at Ephrin type-A receptor 5 is > 30 µM (inactive); in test [7], > 30 µM (inactive); in test [8] it was > 30 µM (inactive); in [9], > 30 µM (inactive); in test [10], 1.71 µM (active); in test [11], > 30 µM (inactive). For the same compound, the Kd (on Deoxycytidine kinase; in [12]; in [13]; in [14]; in test [15]) was > 30 µM (inactive) in each case.
On to `C=CC(=O)Nc1cc2c(Nc3ccc(F)c(Cl)c3)ncnc2cc1C#CC(C)(C)N1CCN(C)CC1` [AV-412 FREE BASE], for which the Kd in test [1], in test [2], in test [3], in test [4], in [5] and in test [6] was > 30 µM (inactive) in each case. In addition, the Kd (at Ephrin type-A receptor 5; in [7]; in [8]; in [9]; in test [10]; in test [11]) was > 30 µM (inactive) each time. For the same compound, the Kd (at Deoxycytidine kinase; in [12]; in test [13]; in test [14]; in test [15]) was > 30 µM (inactive) in each case.
For `O=C(Nc1cc(C(F)(F)F)cc(C(F)(F)F)c1)c1cc(Cl)ccc1O` [IMD-0354], the Kd (in test [2]; in test [3]; in test [4]; in [5]; in test [6]; on Ephrin type-A receptor 5) was > 30 µM (inactive) throughout. In addition, the Kd in [7] was > 30 µM (inactive); in test [8] it was > 30 µM (inactive); in test [9], > 30 µM (inactive); in [10], 1.46 µM (active); in test [11] it was > 30 µM (inactive); at Deoxycytidine kinase, > 30 µM (inactive). Moreover, the Kd in test [12], in test [13], in test [14] and in test [15] was > 30 µM (inactive) each time.
Regarding `CC(C)c1cc(CNc2nc(Nc3cc(C4CC4)[nH]n3)cc(N3CCN(C)CC3)n2)on1` [XL-228], the Kd in test [1] was > 30 µM (inactive); in test [2], > 30 µM (inactive); in test [3], > 30 µM (inactive); in test [5], > 30 µM (inactive); in test [6] it was > 30 µM (inactive); on Ephrin type-A receptor 5 it was 0.081 µM (active). Also, the Kd in [7] was 1.8 µM (active); in [8], > 30 µM (inactive); in [9], > 30 µM (inactive); in test [10], 0.551 µM (active); in test [11], > 30 µM (inactive); at Deoxycytidine kinase, > 30 µM (inactive). Further, the Kd in [12] was 1.33 µM (active); in [13], > 30 µM (inactive); in [14], > 30 µM (inactive); in test [15] it was > 30 µM (inactive).
